{
  "source": "patent US11850238B2",
  "about": "“Use of a thienopyridone derivative in the treatment of adrenoleukodystrophy or adrenomyeloneuropathy” (POXEL, priority 2020, dated 2023)",
  "key": {"[1]": {"system": "AMN human patient-derived primary lymphocytes", "test": "Hexacosanoic acid (VLCFA) level in AMN patient-derived lymphocytes, LC-MS", "format": "cell-based", "method": "(§1) In order to show the efficacy of PXL770 to lower very long chain fatty acids (VLCFA) in vitro, the study focuses on the level assessment of the hexacosanoic acid, which is the most prevalent VLCFA, in healthy control cells and in AMN human patient-derived primary lymphocytes. The cell lines were obtained from Coriell Cell Repositories. Lymphocytes were cultured in RPMI-1640 with 10% fetal bovine serum (FBS). The cultures were split in 1:5 ratio. Lymphocytes from healthy patients were used as control. All treatments were in complete media containing fetal bovine serum (FBS, 15%). All cultured cells were maintained at 37° C. in 5% CO2.\n(§2) VLCFA content was then measured as follows. Samples are adjusted to a final volume of 0.5-1 ml with LC-MS grade water and spiked with 10 ng of Lignoceric acid-d4 as an internal standard. The sample is acidified to pH 3-4 with dilute hydrochloric acid and extracted with isooctane-ethyl acetate (9:1) three times with equal volume. The extract is dried under nitrogen and the residue is reconstituted in methanol-water-ammonium acetate (75:25:10 mM).\nTotal fatty acids: After preparing the samples with internal standard as described above for free fatty acids, aqueous sodium hydroxide is added to a final concentration of 1 M. The mixture is incubated at 37° C. in dark under nitrogen for 3 h. […]\nLC-MS analysis of fatty acids: The reconstituted fatty acid extracts are subjected to HPLC on Targa C8 column (2×10 mm) using methanol-aqueous ammonium acetate (10 mM) solvent mixture. […] The column eluent is directly introduced to mass analyzer (QTRAP5500) and monitored for fatty acids using published pseudo MRM method. […] Each fatty acid is quantitated against the added internal standard.\nFirst, the evolution of hexacosanoic acid in lymphocytes is monitored in healthy control cells and in AMN human patient-derived primary lymphocytes; and in a second time a treatment of PXL770 was assigned to AMN human-derived primary lymphocytes in culture at different concentrations (5 μM, 10 μM, 25 μM, 50 μM) for one week and the level of hexacosanoic acid was measured. […]"}, "[2]": {"system": "AMN human patient-derived primary fibroblasts", "test": "Hexacosanoic acid (VLCFA) level in AMN patient-derived fibroblasts, LC-MS", "format": "cell-based", "method": "as §1, with “compare” for “show”, “PXL770 and metformin” for “PXL770”, “fibroblasts.” for “lymphocytes.”, “Fibroblasts” for “Lymphocytes”, “DMEM” for “RPMI-1640”, “15% FBS.” for “10% fetal bovine serum (FBS).”\nas §2\nTotal fatty acids: After preparing the samples with internal standard as described above for free fatty acids, aqueous sodium hydroxide is added to a final concentration of 1 M. The mixture is incubated at 37° C. in dark under nitrogen for 3 h. The samples are then acidified, extracted, and reconstituted as described above.\nLC-MS analysis of fatty acids: The reconstituted fatty acid extracts are subjected to HPLC on Targa C8 column (2×10 mm) using methanol-aqueous ammonium acetate (10 mM) solvent mixture. The column is eluted with a gradient of methanol (75 to 90%) over 8 min at a flow rate of 0.25 ml/min. The column eluent is directly introduced to mass analyzer (QTRAP5500) and monitored for fatty acids using published pseudo MRM method. Under these conditions, the VLCFA elute between 5 and 8 min. Each fatty acid is quantitated against the added internal standard.\nThe study planned different groups of patients. First, the evolution of hexacosanoic acid in fibroblasts is monitored in healthy control cells and in AMN human patient-derived primary fibroblasts; and in a second time a treatment of PXL770 was assigned to AMN human-derived primary fibroblasts in culture at different doses (PXL770: 0.1, 0.5, 1, 2, 3.5 and 5 μM; metformin: 100, 200, 300 and 400 μM) for one week and the level of hexacosanoic acid was measured.\nThe experiment described in Example 3 was reproduced with various thienopyridone compounds, namely: • PXL770: potassium 2-chloro-3-(5-hydroxytetralin-6-yl)-6-oxo-5-phenyl-7H-thieno[2,3-b]pyridin-4-olate • PXL700: 2-chloro-4-hydroxy-3-indan-5-yl-5-(3-pyridyl)-7H-thieno[2,3-b]pyridin-6-one • PXL702: 2-chloro-4-hydroxy-3-(4-hydroxyindan-5-yl)-5-phenyl-7H-thieno[2,3-b]pyridin-6-one • PXL695: 2-chloro-5-(3-fluorophenyl)-4-hydroxy-3-(4-hydroxyindan-5-yl)-7H-thieno[2,3-b]pyridin-6-one, • each tested at concentrations from 0.1 to 5 μM.\nA one-way ANOVA with Dunnett's multiple comparison test was performed to assess the effect of PXL770 on brain's VLCFAs (**** p<0.0001, *** p<0.001). A Kruskal-Wallis test with Dunn's multiple comparison test was performed to assess the effect of PXL770 on plasma's VLCFAs (**** p<0.0001, […])."}, "ABCD2": {"system": "ABCD2", "test": "Western blot of ABCD2 expression in ALD-KO mouse brain cortex mixed glial cells", "format": "cell-based", "details": "vs non-treated, FIG. 4", "method": "The cells were washed with cold Tris-buffered saline (20 mM Trizma base and 137 mM NaCl, pH 7.5) and lysed in 1×SDS sample-loading buffer (62.5 mM Trizma base, 2% [w/v] SDS, 10% glycerol), and after sonication and centrifugation at 15,000 g for 5 min, the supernatant was used for the immunoblot assay. The protein concentration of samples was determined with the detergent compatible protein assay reagent (Bio-Rad) using BSA as the standard. The sample was boiled for 3 min with 0.1 volumes of 10% β mercaptoethanol and 0.5% bromphenol blue mix. Then, 40 μg of total cellular protein was resolved by electrophoresis on 8 or 12% polyacrylamide gels, electrotransferred and blocked with Tween 20-containing Tris-buffered saline (TBST; 10 mM Trizma base, pH 7.4, 1% Tween 20, and 150 mM NaCl) with 5% skim milk. After incubation with antibodies against ABCD2, ABCD3, and (β-actin at 4^0 overnight, the membranes were then washed with TBST and incubated with horseradish peroxidase-conjugated anti-rabbit or mouse IgG for 1 h at room temperature. The membranes were detected by autoradiography using ECL-plus (Amersham Biosciences) after washing with TBST buffer.\nThe same experimental protocol as in example 4 was performed for ALD-KO mouse brain cortex mixed glial cells. This model is mainly a model for AMN. […]"}, "ABCD1-KO mice": {"system": "ABCD1-KO mice", "test": "In vivo X-ALD mouse, 90 days: VLCFA (C26:0) in spinal cord", "details": "male ABCD1-KO mice, 75 mg/kg oral gavage twice a day, FIG. 13", "method": "Male ABCD1-KO mice (n=8) were treated with oral gavage of PXL770 (75 mg/kg) twice a day, every day for 90 days. Untreated ABCD1-KO mice (n=8) and wild-type (WT) mice (n=8) served as controls. Post-treatment mice were sacrificed and spinal cord was collected for VLCFA analysis. The analysis was performed according to the standardized protocols of the Lipidomics Core Facility and data are expressed as VLCFA μg/ml levels. Hexacosanoic acid (C26:0) was selected as representative for VLCFAs."}},
  "data": [
    {"smiles": "O=c1[nH]c2sc(Cl)c(-c3ccc4c(c3O)CCCC4)c2c([O-])c1-c1ccccc1.[K+]", "note": "[PXL770, monohydrate potassium salt of 2-chloro-4-hydroxy-3-(5-hydroxytetralin-6-yl)-5-phenyl-7H-thieno[2,3-b]pyridin-6-one]", "values": [
      {"measurement": "level of hexacosanoic acid", "setting": "[1]; AMN lymphocytes, all doses tested (5, 10, 25, 50 μM), one week, FIG. 1", "result": "strongly decreases"},
      {"measurement": "level of hexacosanoic acid compared to healthy controls", "setting": "[1]; AMN lymphocytes, doses of 5 and 50 μM, one week, FIG. 1", "result": "same level as that present in lymphocytes of healthy controls"},
      {"measurement": "VLCFA content, normalization", "setting": "[1]; AMN patient cells, 5 μM", "result": "normalization effect"},
      {"measurement": "potency and efficacy compared to metformin", "setting": "[2]; AMN fibroblasts, PXL770 0.1-5 μM vs metformin 100-400 μM, one week, FIG. 10", "result": "much higher potency and efficacy"},
      {"measurement": "level of hexacosanoic acid", "setting": "[2]; AMN fibroblasts, increasing doses 0.1-5 μM, one week, FIG. 10", "result": "decreases"},
      {"measurement": "VLCFA levels", "setting": "[2]; AMN patient-derived fibroblasts, concentrations from 0.1 to 5 μM, FIG. 14", "result": "comparable decrease"},
      {"measurement": "expression of ABCD2 (Western blot)", "setting": "ABCD2", "result": "overexpression"},
      {"measurement": "VLCFA accumulation in the spinal cord", "setting": "ABCD1-KO mice", "result": "significantly reduces"}
    ]}
  ]
}
